Literature values as cited in patent US8981059B2, “Platelet aggregation inducing substance” (JNC Corporation, priority 2006, dated 2015).

Tested on: platelets
Settings: as disclosed in the non-patent documents

-(Gly-Pro-Hyp)10- [polypeptide -(Gly-Pro-Hyp)10-]
platelet aggregation inducing activity: low
